The text below walks through data of patent publication US20240400591A1 (Jacobio Pharmaceuticals Co., Ltd., priority 2021, published 2024).

For assay [1], the target named is T1, His-p53 Y220C (94-294) protein (Homo sapiens, UniProt P04637, Y220C).
T1 construct: His-p53 Y220C (94-294) protein
The assay can be described thus: In vitro DNA binding assay (HTRF). It is filed as biochemical. As to conditions: % activation normalized to 2 μM Ref-1a high control.

Assay [2] deals with NUGC3 (P53 Y220C). The experiment in a line: Cell viability assay (CellTiter-Glo, 6 days), NUGC3. Type of assay: cell-based. To be noted: cell viability, 6 days, CellTiter-Glo, read-out: NUGC3 (P53 Y220C) IC50. In outline:
(§1)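 After a 6-day compound exposure following overnight plating, ATP luminescence (CellTiter-Glo) gave percent viability relative to DMSO-treated cells and cell-free medium controls. IC50 = concentration at 50% viability, from 4-parameter logistic or Excel fit.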
(In ATP-based viability assays light output follows the ATP content of the culture.)

For assay [3], the system named is NUGC4 (P53 WT). The assay can be described thus: Cell viability assay (CellTiter-Glo, 6 days), NUGC4. It is filed as cell-based. As to conditions: cell viability, 6 days, CellTiter-Glo, read-out: NUGC4 (P53 WT) IC50. In outline: as §1
Assay [4] has as its system NUGC-3_P53_Luc single clonal cell line (p53 Y220C). The experiment in a line: Reporter gene assay (p53 RE luciferase). It is filed as cell-based. As to conditions: luciferase reporter, 6 hours, normalized to Ref-1a (10 μM) high control, read-out: p53(Y220C)_NUGC-3 EC50. Summed up: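 Luminescence normalised to DMSO-only (0%) and 10 μM Ref-1a (100%) wells gives % activity, fitted by 4-parameter logistic or Excel to yield EC50 at 50%. Reporter line: NUGC-3 with p53 response element-luc2P, compound-treated 6 h at 37 °C.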

Like-named read-outs stand apart in the source and are kept apart here.

A word on the EC50: it is the concentration needed to bring the measured effect to its halfway point. As a reminder, the IC50 is the concentration that inhibits the measured activity by half. For the compound `CN1CC[C@@H](Nc2cccc3c(CC(F)(F)F)c(C#CCNc4ccc(P(C)(C)=O)cc4F)sc23)[C@@H](F)C1` [Example 84, (3-fluoro-4-((3-(7-(((3S,4R)-3-fluoro-1-methylpiperidin-4-yl)amino)-3-(2,2,2-trifluoroethyl)benzo[b]thiophen-2-yl)prop-2-yn-1-yl)amino)phenyl)dimethylphosphine oxide], the EC50 in assay [1] turned out to be 0.045 µM; in assay [4] (Homo sapiens, NUGC-3, 6 h), 0.17 µM. Moreover, the IC50 was found to be 1.42 µM in assay [2] (Homo sapiens, NUGC-3, 144 h) and 11.5 µM in assay [3] (Homo sapiens, NUGC-4, 144 h).

Take `COc1cc(C(N)=O)ncc1NCC#Cc1sc2c(NC3CCN(C)CC3F)cccc2c1CC(F)(F)F` (stereo not shown) [Example 61, 5-((3-(3-(2,2,2-trifluoroethyl)-7-(((Z)-3-fluoro-1-methylpiperidin-4-yl)amino)benzo[b]thiophen-2-yl)prop-2-yn-1-yl)amino)-4-methoxypicolinamide]: the figures for the EC50 in assay [1] and in assay [4] were 0.102 µM and 0.53 µM, respectively. Besides, the IC50 in assay [2] was found to be 4.53 µM; in assay [3], 13 µM.

Regarding `COc1cc(P(C)(C)=O)ccc1NCC#Cc1sc2c(NC3C(C)CN(C)CC3C)cccc2c1CC(F)(F)F` (stereo not shown) [Example 132, (3-methoxy-4-((3-(3-(2,2,2-trifluoroethyl)-7-(((E)-1,3,5-trimethylpiperidin-4-yl)amino)benzo[b]thiophen-2-yl)prop-2-yn-1-yl)amino)phenyl)dimethylphosphine oxide], the figures for the EC50 in assay [1] and in assay [4] were 0.059 µM and 0.26 µM, respectively. Further, the figures for the IC50 in assay [2] and in assay [3] were 0.82 µM and 3.08 µM, respectively.

For the compound `CN1CC[C@@H](Nc2cccc3c(CC(F)(F)F)c(C#CCNc4ccc(P(C)(C)=O)c5ccoc45)sc23)[C@@H](F)C1` [Example 198, (7-((3-(7-(((3S,4R)-3-fluoro-1-methylpiperidin-4-yl)amino)-3-(2,2,2-trifluoroethyl)benzo[b]thiophen-2-yl)prop-2-yn-1-yl)amino)benzofuran-4-yl)dimethylphosphine oxide], the EC50 in assay [1] was 0.043 µM; in assay [4] (Homo sapiens, NUGC-3), 0.2 µM. Further, the IC50 in assay [2] (Homo sapiens, NUGC-3, 144 h) worked out at 0.26 µM; in assay [3] (Homo sapiens, NUGC-4, 144 h) it was 5.1 µM.

Regarding `CNC(=O)c1ccc(NCC#Cc2sc3c(N[C@@H]4CCN(C)C[C@@H]4F)cccc3c2CC(F)(F)F)c(OCCOC)c1` (racemic) [Example 81, 4-((3-(7-(((Z)-3-fluoro-1-methylpiperidin-4-yl)amino)-3-(2,2,2-trifluoroethyl)benzo[b]thiophen-2-yl)prop-2-yn-1-yl)amino)-3-(2-methoxyethoxy)-N-methylbenzamide], the EC50 in assay [1] amounted to 0.087 µM; in assay [4] (Homo sapiens, NUGC-3), 0.29 µM. Besides, the IC50 in assay [2] (Homo sapiens, NUGC-3, 144 h) was 1.68 µM; in assay [3] (Homo sapiens, NUGC-4, 144 h) it was 8.64 µM.

In the case of `CN1CC[C@@H](Nc2cccc3c(CC(F)(F)F)c(C#CCNc4ccc(P(C)(C)=O)cc4C(=O)NC4CCOCC4)sc23)[C@@H](F)C1` [Example 216, 5-(dimethylphosphoryl)-2-((3-(7-(((3S,4R)-3-fluoro-1-methylpiperidin-4-yl)amino)-3-(2,2,2-trifluoroethyl)benzo[b]thiophen-2-yl)prop-2-yn-1-yl)amino)-N-(tetrahydro-2H-pyran-4-yl)benzamide], the EC50 in assay [1] turned out to be 0.048 µM; in assay [4] (Homo sapiens, NUGC-3) it was 0.12 µM. Moreover, the IC50 was 0.27 µM in assay [2] (Homo sapiens, NUGC-3, 144 h) and over 50 µM in assay [3] (Homo sapiens, NUGC-4, 144 h).

Take `CNC(=O)c1ccc(NCC#Cc2sc3c(NC4CCN(C)CC4F)cccc3c2CC(F)(F)F)c(OC)n1` (stereo not shown) [Example 62, 5-((3-(7-(((Z)-3-fluoro-1-methylpiperidin-4-yl)amino)-3-(2,2,2-trifluoroethyl)benzo[b]thiophen-2-yl)prop-2-yn-1-yl)amino)-6-methoxy-N-methylpicolinamide]: the results for the EC50 in assay [1] and in assay [4] were 0.064 µM and 0.34 µM, respectively. The IC50 stood at 1.43 µM in assay [2] and 3.7 µM in assay [3].

In the case of `COc1cc(P(C)(C)=O)ncc1NCC#Cc1sc2c(N[C@@H]3CCN(C)C[C@@H]3F)cccc2c1CC(F)(F)F` [Example 92, (5-((3-(7-(((3S,4R)-3-fluoro-1-methylpiperidin-4-yl)amino)-3-(2,2,2-trifluoroethyl)benzo[b]thiophen-2-yl)prop-2-yn-1-yl)amino)-4-methoxypyridin-2-yl)dimethylphosphine oxide], the EC50 in assay [1] came out at 0.047 µM; in assay [4] (Homo sapiens, NUGC-3) it was 0.18 µM. The IC50 worked out at 0.99 µM in assay [2] (Homo sapiens, NUGC-3, 144 h) and 13.4 µM in assay [3] (Homo sapiens, NUGC-4, 144 h).

As to `CN1CC[C@@H](Nc2cccc3c(CC(F)(F)F)c(C#CCNc4ccc(P(C)(C)=O)cc4OC4CC4)sc23)[C@@H](F)C1` [Example 150, (3-cyclopropoxy-4-((3-(7-(((3S,4R)-3-fluoro-1-methylpiperidin-4-yl)amino)-3-(2,2,2-trifluoroethyl)benzo[b]thiophen-2-yl)prop-2-yn-1-yl)amino)phenyl)dimethylphosphine oxide], the EC50 in assay [1] was 0.035 µM; in assay [4] (Homo sapiens, NUGC-3) it was 0.08 µM. Further, the IC50 came to 0.39 µM in assay [2] (Homo sapiens, NUGC-3, 144 h) and 9.92 µM in assay [3] (Homo sapiens, NUGC-4, 144 h).

Consider `CN1CC[C@@H](Nc2cccc3c(CC(F)(F)F)c(C#CCNc4ccc(P(C)(C)=O)cc4C#N)sc23)[C@@H](F)C1` [Example 211, 5-(dimethylphosphoryl)-2-((3-(7-(((3S,4R)-3-fluoro-1-methylpiperidin-4-yl)amino)-3-(2,2,2-trifluoroethyl)benzo[b]thiophen-2-yl)prop-2-yn-1-yl)amino)benzonitrile], for which the EC50 was found to be 0.052 µM in assay [1] and 0.22 µM in assay [4] (Homo sapiens, NUGC-3, 6 h). Also, the IC50 amounted to 1.07 µM in assay [2] (Homo sapiens, NUGC-3, 144 h) and 11.3 µM in assay [3] (Homo sapiens, NUGC-4, 144 h).

With `COc1cc(P(C)(C)=O)ccc1NCC#Cc1sc2c(N[C@H]3CCN(C)C[C@H]3F)cccc2c1CC(F)(F)F` [Example 114, (4-((3-(7-(((3R,4S)-3-fluoro-1-methylpiperidin-4-yl)amino)-3-(2,2,2-trifluoroethyl)benzo[b]thiophen-2-yl)prop-2-yn-1-yl)amino)-3-methoxyphenyl)dimethylphosphine oxide], the EC50 in assay [1] amounted to 0.057 µM; in assay [4] (Homo sapiens, NUGC-3, 6 h), 0.12 µM. For the same compound, the IC50 in assay [2] (Homo sapiens, NUGC-3, 144 h) stood at 1.24 µM; in assay [3] (Homo sapiens, NUGC-4, 144 h), 10.5 µM.

As for `COc1cc(P(C)(C)=O)ccc1NCC#Cc1sc2c(N[C@@H]3CCN(C(C)C)C[C@@H]3F)cccc2c1CC(F)(F)F` (racemic) [Example 86, (4-((3-(7-(((Z)-3-fluoro-1-isopropylpiperidin-4-yl)amino)-3-(2,2,2-trifluoroethyl)benzo[b]thiophen-2-yl)prop-2-yn-1-yl)amino)-3-methoxyphenyl)dimethylphosphine oxide], the EC50 is 0.037 µM in assay [1] and 0.14 µM in assay [4] (Homo sapiens, NUGC-3, 6 h). The IC50 in assay [2] (Homo sapiens, NUGC-3, 144 h) worked out at 0.79 µM; in assay [3] (Homo sapiens, NUGC-4, 144 h), 4.56 µM.

As to `CN1CC[C@@H](Nc2cccc3c(CC(F)(F)F)c(C#CCNc4ccc(P(C)(C)=O)cc4C(F)(F)F)sc23)[C@@H](F)C1` [Example 105, (4-((3-(7-(((3S,4R)-3-fluoro-1-methylpiperidin-4-yl)amino)-3-(2,2,2-trifluoroethyl)benzo[b]thiophen-2-yl)prop-2-yn-1-yl)amino)-3-(trifluoromethyl)phenyl)dimethylphosphine oxide], the concentration for a half-maximal effect (EC50) stood at 0.035 µM in assay [1] and 0.2 µM in assay [4] (Homo sapiens, NUGC-3, 6 h). For the same compound, the IC50 in assay [2] (Homo sapiens, NUGC-3, 144 h) came out at 1.83 µM; in assay [3] (Homo sapiens, NUGC-4, 144 h), 10 µM.
